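Protocol summary: plate cells (96-well), add compound at 5 concentrations, incubate 48 h, interpolate endpoints linearly. TGI: total growth inhibition.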
Legend:
Assay in all cases: NCI tumour cell line growth inhibition, 48 h
MCF7 breast = system: MCF7 breast
UO-31 renal = system: UO-31 renal
ACHN renal = system: ACHN renal
SN12C renal = system: SN12C renal
M14 melanoma = system: M14 melanoma
T-47D breast = system: T-47D breast
SK-MEL-28 melanoma = system: SK-MEL-28 melanoma
SK-OV-3 ovarian = system: SK-OV-3 ovarian
RPMI-8226 leukemia = system: RPMI-8226 leukemia
HCT-15 colon = system: HCT-15 colon
PC-3 prostate = system: PC-3 prostate
EKVX NSCLC = system: EKVX NSCLC
SF-539 CNS = system: SF-539 CNS
NCI-H460 lung = system: NCI-H460 lung
HS 578T breast = system: HS 578T breast
SK-MEL-2 melanoma = system: SK-MEL-2 melanoma
A549 NSCLC = system: A549 NSCLC
SNB-75 CNS = system: SNB-75 CNS
NCI-H522 lung = system: NCI-H522 lung
CCRF-CEM leukemia = system: CCRF-CEM leukemia
UACC-62 melanoma = system: UACC-62 melanoma
DU-145 prostate = system: DU-145 prostate
MDA-MB-231 breast = system: MDA-MB-231 breast
HL-60(TB) leukemia = system: HL-60(TB) leukemia
IGROV1 ovarian = system: IGROV1 ovarian
OVCAR-4 ovarian = system: OVCAR-4 ovarian
NCI/ADR-RES ovarian = system: NCI/ADR-RES ovarian
HOP-62 NSCLC = system: HOP-62 NSCLC
MDA-N = system: MDA-N
SF-295 CNS = system: SF-295 CNS
SW-620 colon = system: SW-620 colon
OVCAR-5 ovarian = system: OVCAR-5 ovarian
U251 CNS = system: U251 CNS
HCT-116 colon = system: HCT-116 colon
NCI-H226 lung = system: NCI-H226 lung
MALME-3M melanoma = system: MALME-3M melanoma
SK-MEL-5 melanoma = system: SK-MEL-5 melanoma
OVCAR-3 ovarian = system: OVCAR-3 ovarian
A498 renal = system: A498 renal
HT29 colon = system: HT29 colon
MOLT-4 leukemia = system: MOLT-4 leukemia
RXF 393 renal = system: RXF 393 renal
NCI-H23 lung = system: NCI-H23 lung
TK-10 renal = system: TK-10 renal
OVCAR-8 ovarian = system: OVCAR-8 ovarian
MDA-MB-435 = system: MDA-MB-435
SF-268 CNS = system: SF-268 CNS
K-562 leukemia = system: K-562 leukemia
SNB-19 CNS = system: SNB-19 CNS
BT-549 breast = system: BT-549 breast
HCC-2998 colon = system: HCC-2998 colon
786-0 renal = system: 786-0 renal
LOX IMVI melanoma = system: LOX IMVI melanoma
COLO 205 colon = system: COLO 205 colon
KM12 colon = system: KM12 colon
CAKI-1 renal = system: CAKI-1 renal
SR leukemia = system: SR leukemia
UACC-257 melanoma = system: UACC-257 melanoma
HOP-92 NSCLC = system: HOP-92 NSCLC

CN(C)c1cc[n+](-c2nc(/N=C(\[O-])C(F)(F)F)nc3c2ncn3C2CC(O)C(CO)O2)cc1 (stereo unspecified) gave a TGI (MCF7 breast) greater than 100 µM, a TGI (UO-31 renal) greater than 100 µM and a TGI (ACHN renal) greater than 100 µM. The TGI (SN12C renal) was greater than 100 µM, the TGI (M14 melanoma) was greater than 100 µM and the TGI (T-47D breast) was greater than 100 µM. It also gave a TGI (SK-MEL-28 melanoma) greater than 100 µM, a TGI (SK-OV-3 ovarian) greater than 100 µM and a TGI (RPMI-8226 leukemia) greater than 100 µM. The TGI (HCT-15 colon) was greater than 100 µM, the TGI (PC-3 prostate) was greater than 100 µM and the TGI (EKVX NSCLC) was greater than 100 µM. For the same compound, the TGI (SF-539 CNS) was greater than 100 µM, the TGI (NCI-H460 lung) was greater than 100 µM and the TGI (HS 578T breast) was greater than 100 µM. The TGI (SK-MEL-2 melanoma) was greater than 100 µM, the TGI (A549 NSCLC) was greater than 100 µM and the TGI (SNB-75 CNS) was greater than 100 µM. For the same compound, the TGI (NCI-H522 lung) was greater than 100 µM, the TGI (CCRF-CEM leukemia) was greater than 100 µM and the TGI (UACC-62 melanoma) was greater than 100 µM. It also gave a TGI (DU-145 prostate) greater than 100 µM, a TGI (MDA-MB-231 breast) greater than 100 µM and a TGI (HL-60(TB) leukemia) greater than 100 µM. For the same compound, the TGI (IGROV1 ovarian) was greater than 100 µM, the TGI (OVCAR-4 ovarian) was greater than 100 µM and the TGI (NCI/ADR-RES ovarian) was greater than 100 µM. It also gave a TGI (HOP-62 NSCLC) greater than 100 µM, a TGI (MDA-N) greater than 100 µM and a TGI (SF-295 CNS) greater than 100 µM. It also gave a TGI (SW-620 colon) greater than 100 µM, a TGI (OVCAR-5 ovarian) greater than 100 µM and a TGI (U251 CNS) greater than 100 µM. The TGI (HCT-116 colon) was greater than 100 µM, the TGI (NCI-H226 lung) was greater than 100 µM and the TGI (MALME-3M melanoma) was greater than 100 µM. The TGI (SK-MEL-5 melanoma) was greater than 100 µM, the TGI (OVCAR-3 ovarian) was greater than 100 µM and the TGI (A498 renal) was greater than 100 µM. It also gave a TGI (HT29 colon) greater than 100 µM, a TGI (MOLT-4 leukemia) greater than 100 µM and a TGI (RXF 393 renal) greater than 100 µM. It also gave a TGI (NCI-H23 lung) greater than 100 µM, a TGI (TK-10 renal) greater than 100 µM and a TGI (OVCAR-8 ovarian) greater than 100 µM. It also gave a TGI (MDA-MB-435) greater than 100 µM, a TGI (SF-268 CNS) greater than 100 µM and a TGI (K-562 leukemia) greater than 100 µM. The TGI (SNB-19 CNS) was greater than 100 µM, the TGI (BT-549 breast) was greater than 100 µM and the TGI (HCC-2998 colon) was greater than 100 µM. The TGI (786-0 renal) was greater than 100 µM, the TGI (LOX IMVI melanoma) was greater than 100 µM and the TGI (COLO 205 colon) was greater than 100 µM. It also gave a TGI (KM12 colon) greater than 100 µM.
With CN(C)/N=C1\CC(c2ccccc2)C(C#N)(C#N)C1(C#N)C#N (stereo unspecified) the TGI (MCF7 breast) was greater than 100 µM, the TGI (UO-31 renal) was 34.4 µM and the TGI (ACHN renal) was 34.8 µM. It also gave a TGI (SN12C renal) of 36.9 µM, a TGI (M14 melanoma) of 34.3 µM and a TGI (T-47D breast) of 50.3 µM. For the same compound, the TGI (SK-MEL-28 melanoma) was 46 µM, the TGI (SK-OV-3 ovarian) was greater than 100 µM and the TGI (RPMI-8226 leukemia) was 47.2 µM. It also gave a TGI (HCT-15 colon) of 30.1 µM, a TGI (PC-3 prostate) of 35.6 µM and a TGI (EKVX NSCLC) greater than 100 µM. The TGI (SF-539 CNS) was greater than 100 µM, the TGI (HS 578T breast) was 75.1 µM and the TGI (SK-MEL-2 melanoma) was 40 µM. It also gave a TGI (A549 NSCLC) greater than 100 µM, a TGI (SNB-75 CNS) of 33.9 µM and a TGI (NCI-H522 lung) of 35.3 µM. It also gave a TGI (CCRF-CEM leukemia) greater than 100 µM, a TGI (UACC-62 melanoma) of 41.8 µM and a TGI (DU-145 prostate) of 36.2 µM. For the same compound, the TGI (CAKI-1 renal) was 21.9 µM, the TGI (MDA-MB-231 breast) was 36.9 µM and the TGI (HL-60(TB) leukemia) was greater than 100 µM. It also gave a TGI (IGROV1 ovarian) of 45.3 µM, a TGI (OVCAR-4 ovarian) greater than 100 µM and a TGI (NCI/ADR-RES ovarian) of 72.1 µM. The TGI (HOP-62 NSCLC) was 59 µM, the TGI (SR leukemia) was greater than 100 µM and the TGI (MDA-N) was 40 µM. It also gave a TGI (SF-295 CNS) of 48.1 µM, a TGI (UACC-257 melanoma) of 34.3 µM and a TGI (SW-620 colon) of 36.2 µM. It also gave a TGI (OVCAR-5 ovarian) of 59.1 µM, a TGI (U251 CNS) greater than 100 µM and a TGI (HCT-116 colon) of 39.8 µM. The TGI (NCI-H226 lung) was 84.7 µM, the TGI (MALME-3M melanoma) was 34.2 µM and the TGI (SK-MEL-5 melanoma) was 24.4 µM. It also gave a TGI (A498 renal) of 33.8 µM, a TGI (HOP-92 NSCLC) of 29.7 µM and a TGI (HT29 colon) of 50.5 µM. It also gave a TGI (MOLT-4 leukemia) of 56.5 µM, a TGI (RXF 393 renal) of 54.5 µM and a TGI (NCI-H23 lung) of 53.1 µM. The TGI (TK-10 renal) was 32.4 µM, the TGI (OVCAR-8 ovarian) was 41.9 µM and the TGI (MDA-MB-435) was 81.8 µM. For the same compound, the TGI (SF-268 CNS) was 35.6 µM, the TGI (K-562 leukemia) was greater than 100 µM and the TGI (SNB-19 CNS) was 54.1 µM. For the same compound, the TGI (HCC-2998 colon) was 33.1 µM, the TGI (786-0 renal) was 42.3 µM and the TGI (LOX IMVI melanoma) was 79.2 µM. For the same compound, the TGI (COLO 205 colon) was 22.1 µM and the TGI (KM12 colon) was greater than 100 µM.

From PubChem BioAssay (NCI)
